Source: publication PMC11124136, “New Thiazolidine-4-One Derivatives as SARS-CoV-2 Main Protease Inhibitors” (Pharmaceuticals, 2024)
Like-named read-outs stand apart in the source and are kept apart here.

What was measured:
[1] = system: SARS-CoV-2 BetaCoV/Belgium/GHB-03021/2020 strain; assay: microbe, parasite or virus in culture; format: cell-based; settings: read-out: EC50 + CP_100356
SARS-CoV-2 Mpro = SARS-CoV-2 Mpro (Severe acute respiratory syndrome coronavirus 2, UniProt P0DTD1); assay: biochemical; format: biochemical; settings: for IC50: FRET assay, concentration reducing Mpro activity by 50%, mean ± SD of three independent experiments, highest concentration tested 30 μM; for remaining activity at 30 µM: SARS-CoV-2 Mpro, at 30 μM (highest concentration tested), read-out: Percentage of control activity measured in the presence of the indicated drug concentration
in vitro = format: cell-based; settings: African green monkey
Method: (§1) Vero-E6 GFP cells were seeded at 10^4 cells/well in 96-well black plates (PerkinElmer). The following day, cells were incubated, with or without compounds, with 2 μM P-gp inhibitor CP-100356 [47]. The media was removed 24 h after treatment, and the total well GFP fluorescence was measured using Victor NIVO 5 with 485/535 nm excitation wavelength. The cytotoxic effect of compounds was calculated as a percentage of cell viability with respect to untreated control. Data were analyzed using Prism 9. Version 9.1.2.

Vero-E6 GFP cells = assay: in vitro; format: cell-based; settings: concentration reducing Vero E6-GFP viability by 50%; 2 μM CP-100356, 24 h; read-out: CC50 +CP_100356
Method: as §1

[2] = Severe acute respiratory syndrome coronavirus 2, Vero C1008, 72 h, concentration reducing viral replication by 50%, […]

O=C1CSC(c2ccc([N+](=O)[O-])cc2)N1CCc1ccccc1F (stereo not drawn) [Compound 4b, 2-(4-nitrophenyl)-3-(2-fluorophenylethyl)-1,3-thiazolidin-4-one]
EC50 [1, 2]: > 100 µM
IC50 (SARS-CoV-2 Mpro): > 30 µM
remaining activity at 30 µM (SARS-CoV-2 Mpro): 70%
melting point: 150 to 151 °C
CC50 at 24 h (in vitro): > 100 µM

O=C1CSC(c2ccc([N+](=O)[O-])cc2)N1CCc1ccccc1 (stereo not drawn) [Compound 4a, 2-(4-nitrophenyl)-3-(phenylethyl)-1,3-thiazolidin-4-one]
EC50 [1, 2]: > 100 µM
IC50 (SARS-CoV-2 Mpro): > 30 µM
remaining activity at 30 µM (SARS-CoV-2 Mpro): 53%
melting point: 125 °C
CC50 at 24 h (in vitro): > 100 µM

O=C1CSC(c2ccc([N+](=O)[O-])cc2)N1CCc1cccc(F)c1 (stereo not drawn) [Compound 4c, 2-(4-nitrophenyl)-3-(3-fluorophenylethyl)-1,3-thiazolidin-4-one]
EC50 [1, 2]: > 100 µM
IC50 (SARS-CoV-2 Mpro): > 30 µM
remaining activity at 30 µM (SARS-CoV-2 Mpro): 87%
melting point: 165 to 167 °C
CC50 at 24 h (in vitro): > 100 µM

O=C1CSC(c2ccc([N+](=O)[O-])cc2)N1CCc1ccccc1Cl (stereo not drawn) [Compound 4g]
EC50 [1, 2]: > 100 µM
CC50 at 24 h (in vitro): > 100 µM

COc1ccc(CCN2C(=O)CSC2c2ccc([N+](=O)[O-])cc2)cc1 (stereo not drawn) [Compound 4f]
EC50 [1, 2]: > 100 µM
remaining activity at 30 µM (SARS-CoV-2 Mpro): 82%
CC50 at 24 h (in vitro): > 100 µM

COc1ccccc1CCN1C(=O)CSC1c1ccc([N+](=O)[O-])cc1 (stereo not drawn) [Compound 4e]
EC50 [1, 2]: > 100 µM
remaining activity at 30 µM (SARS-CoV-2 Mpro): 54%
CC50 at 24 h (in vitro): > 100 µM

O=C1CSC(c2ccc([N+](=O)[O-])cc2)N1CCc1ccc(Cl)cc1 (stereo not drawn) [Compound 4i]
EC50 [1, 2]: > 100 µM
remaining activity at 30 µM (SARS-CoV-2 Mpro): 54%
CC50 at 24 h (in vitro): > 100 µM

O=C1CSC(c2ccc([N+](=O)[O-])cc2)N1CCc1ccccc1Cl (stereo not drawn) [Compound 4e]
melting point: 123 to 124.5 °C

CC(C)C[C@H](NC(=O)OCc1ccccc1)C(=O)N[C@@H](CC1CCNC1=O)C(O)S(=O)(=O)O (stereo partly drawn) [GC376, reference compound]
EC50 [1]: 0.626 ± 0.06 µM
CC50 (Vero-E6 GFP cells): > 100 µM

O=C1CSC(c2ccc([N+](=O)[O-])cc2)N1CCc1ccc(F)cc1 (stereo not drawn) [Compound 4d, 2-(4-nitrophenyl)-3-(4-fluorophenylethyl)-1,3-thiazolidin-4-one]
EC50 [1, 2]: > 100 µM
IC50 (SARS-CoV-2 Mpro): 27.5 ± 5.5 µM
melting point: 149 to 151 °C
CC50 at 24 h (in vitro): > 100 µM
